Measurements: patent US20240307477A1, “COMPOSITION FOR PREVENTING OR TREATING LIVER FIBROSIS INCLUDING SANGUISORBA OFFICINALIS EXTRACT AS ACTIVE INGREDIENT” (KOREA INSTITUTE OF SCIENCE AND TECHNOLOGY, priority 2023, published 2024)

Each compound was assayed on human immortalization hepatic stellate cells (human LX-2) (assay: RT-qPCR of liver fibrosis-related gene expression in TGF-β-treated hepatic stellate cells). Details: LX-2 cells, 5 ng/mL TGF-β, 24 hours; extract 1, 5 or 10 μg/mL, ziyuglycoside 5 μM; RT-qPCR vs GAPDH.
Type: cell-based
Protocol: As hepatic stellate cells, human immortalization hepatic stellate cells (human LX-2) were given and used. The hepatic stellate cells were cultured in Dulbecco's modified Eagle's medium (DMEM; Invitrogen, US) containing 10% fetal bovine serum (FBS), penicillin (100 U/mL) and streptomycin ([…]) at 37° C. and in a 5% CO2 condition.
To measure the hepatic anti-fibrosis effect of the Sanguisorba officinalis extract (1, 5 or 10 μg/mL) and ziyuglycoside (5 μM) in the LX-2 cells, a real time-quantitative polymerase chain reaction (RT-qPCR) was performed.
First, the hepatic stellate cells were treated with each of the Sanguisorba officinalis extract (1, 5, or 10 μg/mL) and the ziyuglycoside (5 μM) along with 5 ng/mL of a liver fibrosis-inducing material TGF-β and cultured for 24 hours. Afterward, the cells were washed with PBS, total RNA was then extracted according to the manual of an RNA extraction kit (GeneAll RNA isolation kit, Korea), and cDNA was synthesized from the extracted RNA. PCR analysis was performed under user recommended cycling conditions of an analyzer (Applied Biosystems 7900 HT thermal cycler, Applied Biosystems), and to confirm the expression level of each mRNA, PCR was performed using the primers in Table 1 below, and the fold change value for the control was calculated using GAPDH as an endogenous control, and a relative expression level was compared.
`C[C@@H]1CC[C@]2(C(=O)O)CC[C@]3(C)C(=CC[C@@H]4[C@@]5(C)CC[C@H](O[C@@H]6OC[C@H](O)[C@H](O)[C@H]6O)C(C)(C)[C@@H]5CC[C@]43C)[C@@H]2[C@]1(C)O` [ziyuglycoside II] was tested, and the “ACTA2 gene expression increased by TGF-β treatment” value (from here on “ACTA2 gene expression increased”) was “inhibited”, the “COL1A1 gene expression increased by TGF-β treatment” value (from here on “COL1A1 gene expression increased”) was “inhibited” and the “TIMP1 gene expression increased by TGF-β treatment” value (shortened to “TIMP1 gene expression increased”) was “inhibited”.
`C[C@@H]1CC[C@]2(C(=O)O[C@@H]3O[C@H](CO)[C@@H](O)[C@H](O)[C@H]3O)CC[C@]3(C)C(=CC[C@@H]4[C@@]5(C)CC[C@H](O[C@@H]6OC[C@H](O)[C@H](O)[C@H]6O)C(C)(C)[C@@H]5CC[C@]43C)[C@@H]2[C@]1(C)O` [ziyuglycoside I] was tested, and the “ACTA2 gene expression increased” value was “inhibited”, the “COL1A1 gene expression increased” value was “inhibited” and the “TIMP1 gene expression increased” value was “inhibited”.
For ziyuglycoside, the “ACTA2 gene expression increased” value was “reduced”, the “COL1A1 gene expression increased” value was “reduced” and the “TIMP1 gene expression increased” value was “reduced”.
